Tests used:
Assay in all cases: biochemical
Design in all cases: GPCR, ion channel and transporter panel, per cent inhibition of binding, mean of four
5-HT1B = target: T1, 5-HT1B (Homo sapiens, UniProt P28222)
T1 construct: gene HTR1B
Experimental: (§1) We next assessed selectivity of MS67 against 22 protein methyltransferases (table S2) and a broad panel of common drug targets including 45 kinases (table S3) and 44 G protein–coupled receptors (GPCR), ion channels, and transporters (table S4). […] We subsequently determined that MS67 had moderate binding affinity (Ki = 1.0 ± 0.8 μM) to Sigma 2 receptor (fig. S10).

5-HT1D = target: T2, 5-HT1D (Homo sapiens, UniProt P28221)
T2 construct: gene HTR1D
Experimental: as §1

5-HT1E = target: T3, 5-HT1E (Homo sapiens, UniProt P28566)
T3 construct: gene HTR1E
T3 sequence (P28566 whole entry): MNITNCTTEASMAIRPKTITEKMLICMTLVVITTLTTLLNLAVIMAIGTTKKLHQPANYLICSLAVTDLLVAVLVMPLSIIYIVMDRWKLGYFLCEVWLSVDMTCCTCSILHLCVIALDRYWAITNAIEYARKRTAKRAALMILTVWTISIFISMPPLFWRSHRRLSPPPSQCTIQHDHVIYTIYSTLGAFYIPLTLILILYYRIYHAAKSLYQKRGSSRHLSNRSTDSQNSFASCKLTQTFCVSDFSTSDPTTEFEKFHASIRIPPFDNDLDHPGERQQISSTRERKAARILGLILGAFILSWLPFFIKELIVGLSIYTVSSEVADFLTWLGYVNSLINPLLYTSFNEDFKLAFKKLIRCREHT
Experimental: as §1

5-HT2A = target: T4, 5-HT2A (Homo sapiens, UniProt P28223)
T4 construct: gene HTR2A
Experimental: as §1

5-HT2B = target: T5, 5-HT2B (Homo sapiens, UniProt P41595)
T5 construct: gene HTR2B
T5 sequence (P41595 whole entry): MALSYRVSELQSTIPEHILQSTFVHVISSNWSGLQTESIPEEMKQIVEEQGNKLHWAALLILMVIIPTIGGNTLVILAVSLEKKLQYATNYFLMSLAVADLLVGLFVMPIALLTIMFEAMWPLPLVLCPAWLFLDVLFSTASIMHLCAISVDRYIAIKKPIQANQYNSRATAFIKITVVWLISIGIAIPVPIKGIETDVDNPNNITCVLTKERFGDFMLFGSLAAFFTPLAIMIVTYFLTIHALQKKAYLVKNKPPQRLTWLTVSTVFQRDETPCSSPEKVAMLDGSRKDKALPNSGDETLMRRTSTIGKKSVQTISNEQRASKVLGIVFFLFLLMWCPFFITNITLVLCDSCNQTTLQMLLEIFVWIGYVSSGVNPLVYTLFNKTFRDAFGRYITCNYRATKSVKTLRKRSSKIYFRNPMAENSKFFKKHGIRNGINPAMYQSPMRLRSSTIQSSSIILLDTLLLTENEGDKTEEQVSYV
Experimental: as §1

5-HT2C = target: T6, 5-HT2C (Homo sapiens, UniProt P28335)
T6 construct: gene HTR2C
Experimental: as §1

5-HT5A = target: T7, 5-HT5A (Homo sapiens, UniProt P47898)
T7 construct: gene HTR5A
Experimental: as §1

Alpha2A = target: T8, Alpha2A (Homo sapiens, UniProt P08913)
T8 construct: gene ADRA2A
Experimental: as §1

Alpha2C = target: T9, Alpha2C (Homo sapiens, UniProt P18825)
T9 construct: gene ADRA2C
Experimental: as §1

Beta1 = target: T10, Beta1 (Homo sapiens, UniProt P08588)
T10 construct: gene ADRB1
Experimental: as §1

D2 = target: T11, D2 (Homo sapiens, UniProt P14416)
T11 construct: gene DRD2
T11 sequence (P14416 whole entry): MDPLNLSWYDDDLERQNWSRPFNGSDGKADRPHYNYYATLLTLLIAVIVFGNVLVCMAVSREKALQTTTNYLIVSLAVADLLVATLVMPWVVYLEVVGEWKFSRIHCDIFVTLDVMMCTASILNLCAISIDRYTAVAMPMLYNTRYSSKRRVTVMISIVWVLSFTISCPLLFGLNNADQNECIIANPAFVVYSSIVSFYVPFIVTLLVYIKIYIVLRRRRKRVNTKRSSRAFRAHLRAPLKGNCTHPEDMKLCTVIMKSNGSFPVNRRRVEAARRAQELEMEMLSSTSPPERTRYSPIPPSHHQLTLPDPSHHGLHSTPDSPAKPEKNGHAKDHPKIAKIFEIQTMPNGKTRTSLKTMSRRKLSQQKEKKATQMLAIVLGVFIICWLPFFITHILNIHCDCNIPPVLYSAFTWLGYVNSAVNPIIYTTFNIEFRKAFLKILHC
Experimental: as §1

D4 = target: T12, D4 (Homo sapiens, UniProt P21917)
T12 construct: gene DRD4
Experimental: as §1

D5 = target: T13, D5 (Homo sapiens, UniProt P21918)
T13 construct: gene DRD5
Experimental: as §1

H1 = target: T14, H1 (Homo sapiens, UniProt P35367)
T14 construct: gene HRH1
T14 sequence (P35367 whole entry): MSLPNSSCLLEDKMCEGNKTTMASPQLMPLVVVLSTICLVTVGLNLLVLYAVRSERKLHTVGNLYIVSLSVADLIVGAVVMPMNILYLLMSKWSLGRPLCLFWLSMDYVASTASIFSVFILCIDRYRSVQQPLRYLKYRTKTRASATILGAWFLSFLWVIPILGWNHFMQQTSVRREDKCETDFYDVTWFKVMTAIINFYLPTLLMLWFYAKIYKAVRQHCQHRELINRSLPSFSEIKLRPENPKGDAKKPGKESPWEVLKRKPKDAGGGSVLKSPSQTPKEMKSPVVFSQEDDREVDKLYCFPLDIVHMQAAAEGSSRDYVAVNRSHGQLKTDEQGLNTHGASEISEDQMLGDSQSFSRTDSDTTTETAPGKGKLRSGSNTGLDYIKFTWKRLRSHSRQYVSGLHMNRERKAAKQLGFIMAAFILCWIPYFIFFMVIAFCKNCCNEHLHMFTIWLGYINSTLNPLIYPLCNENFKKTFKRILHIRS
Experimental: as §1

H2 = target: T15, H2 (Homo sapiens, UniProt P25021)
T15 construct: gene HRH2
Experimental: as §1

H3 = target: T16, H3 (Homo sapiens, UniProt Q9Y5N1)
T16 construct: gene HRH3
T16 sequence (Q9Y5N1 whole entry): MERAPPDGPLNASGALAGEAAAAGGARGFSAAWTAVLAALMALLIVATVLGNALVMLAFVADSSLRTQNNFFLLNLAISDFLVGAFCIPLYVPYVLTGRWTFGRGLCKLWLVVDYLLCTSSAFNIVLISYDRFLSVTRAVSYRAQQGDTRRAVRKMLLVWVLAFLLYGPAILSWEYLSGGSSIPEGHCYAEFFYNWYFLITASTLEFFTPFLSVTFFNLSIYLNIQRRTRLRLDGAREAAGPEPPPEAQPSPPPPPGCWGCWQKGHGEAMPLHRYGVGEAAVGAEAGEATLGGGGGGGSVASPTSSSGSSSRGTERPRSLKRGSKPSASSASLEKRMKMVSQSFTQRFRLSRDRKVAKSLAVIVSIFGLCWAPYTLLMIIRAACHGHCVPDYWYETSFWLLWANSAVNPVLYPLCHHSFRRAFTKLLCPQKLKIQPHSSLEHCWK
Experimental: as §1

H4 = target: T17, H4 (Homo sapiens, UniProt Q9H3N8)
T17 construct: gene HRH4
T17 sequence (Q9H3N8 whole entry): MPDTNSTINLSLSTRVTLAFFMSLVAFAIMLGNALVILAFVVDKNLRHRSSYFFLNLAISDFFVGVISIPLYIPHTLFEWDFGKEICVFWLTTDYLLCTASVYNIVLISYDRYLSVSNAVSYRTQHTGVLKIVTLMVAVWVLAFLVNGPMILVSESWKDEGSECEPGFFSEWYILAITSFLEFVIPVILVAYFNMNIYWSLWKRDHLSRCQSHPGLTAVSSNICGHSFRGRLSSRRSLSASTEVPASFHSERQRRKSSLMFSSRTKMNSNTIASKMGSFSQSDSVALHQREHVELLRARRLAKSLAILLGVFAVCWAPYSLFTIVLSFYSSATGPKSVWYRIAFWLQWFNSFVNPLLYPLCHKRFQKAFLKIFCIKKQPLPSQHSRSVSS
Experimental: as §1

KOR = target: T18, KOR (Homo sapiens, UniProt P41145)
T18 construct: gene OPRK1
Experimental: as §1

M1 = target: T19, M1 (Homo sapiens, UniProt P11229)
T19 construct: gene CHRM1
Experimental: as §1

M2 = target: T20, M2 (Homo sapiens, UniProt P08172)
T20 construct: gene CHRM2
T20 sequence (P08172 whole entry): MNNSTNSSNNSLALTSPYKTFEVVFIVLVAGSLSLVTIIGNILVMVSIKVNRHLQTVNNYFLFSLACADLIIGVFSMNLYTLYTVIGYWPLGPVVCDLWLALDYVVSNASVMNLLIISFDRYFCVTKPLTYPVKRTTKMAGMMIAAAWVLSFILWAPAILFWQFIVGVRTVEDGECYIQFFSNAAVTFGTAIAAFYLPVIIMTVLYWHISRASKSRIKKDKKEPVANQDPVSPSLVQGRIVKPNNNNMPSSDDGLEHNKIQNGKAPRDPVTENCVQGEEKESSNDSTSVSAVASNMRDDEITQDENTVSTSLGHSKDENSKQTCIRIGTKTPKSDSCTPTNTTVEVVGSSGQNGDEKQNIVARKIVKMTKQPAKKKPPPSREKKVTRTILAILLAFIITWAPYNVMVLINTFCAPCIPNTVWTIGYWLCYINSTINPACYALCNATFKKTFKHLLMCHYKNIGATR
Experimental: as §1

M3 = target: T21, M3 (Homo sapiens, UniProt P20309)
T21 construct: gene CHRM3
Experimental: as §1

M4 = target: T22, M4 (Homo sapiens, UniProt P08173)
T22 construct: gene CHRM4
Experimental: as §1

M5 = target: T23, M5 (Homo sapiens, UniProt P08912)
T23 construct: gene CHRM5
Experimental: as §1

MOR = target: T24, MOR (Homo sapiens, UniProt P35372)
T24 construct: gene OPRM1
Experimental: as §1

NET = target: T25, NET (Homo sapiens, UniProt P23975)
T25 construct: gene SLC6A2
T25 sequence (P23975 whole entry): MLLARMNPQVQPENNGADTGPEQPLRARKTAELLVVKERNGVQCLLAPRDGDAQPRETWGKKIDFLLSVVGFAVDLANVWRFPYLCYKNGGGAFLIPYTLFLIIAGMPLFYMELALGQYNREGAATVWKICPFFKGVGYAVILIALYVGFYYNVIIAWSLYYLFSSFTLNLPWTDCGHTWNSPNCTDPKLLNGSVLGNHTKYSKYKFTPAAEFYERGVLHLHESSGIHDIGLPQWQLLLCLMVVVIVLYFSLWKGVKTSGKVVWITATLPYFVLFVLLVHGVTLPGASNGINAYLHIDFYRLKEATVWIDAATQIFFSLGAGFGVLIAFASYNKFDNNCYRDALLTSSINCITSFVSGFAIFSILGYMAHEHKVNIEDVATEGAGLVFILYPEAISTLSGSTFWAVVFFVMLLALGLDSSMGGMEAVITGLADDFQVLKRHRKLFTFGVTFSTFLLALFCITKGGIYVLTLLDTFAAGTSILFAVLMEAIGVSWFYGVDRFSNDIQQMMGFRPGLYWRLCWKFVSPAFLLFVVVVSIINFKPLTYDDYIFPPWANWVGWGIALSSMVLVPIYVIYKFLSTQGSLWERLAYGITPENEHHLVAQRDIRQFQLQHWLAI
Experimental: as §1

SERT = target: T26, SERT (Homo sapiens, UniProt P31645)
T26 construct: gene SLC6A4
T26 sequence (P31645 whole entry): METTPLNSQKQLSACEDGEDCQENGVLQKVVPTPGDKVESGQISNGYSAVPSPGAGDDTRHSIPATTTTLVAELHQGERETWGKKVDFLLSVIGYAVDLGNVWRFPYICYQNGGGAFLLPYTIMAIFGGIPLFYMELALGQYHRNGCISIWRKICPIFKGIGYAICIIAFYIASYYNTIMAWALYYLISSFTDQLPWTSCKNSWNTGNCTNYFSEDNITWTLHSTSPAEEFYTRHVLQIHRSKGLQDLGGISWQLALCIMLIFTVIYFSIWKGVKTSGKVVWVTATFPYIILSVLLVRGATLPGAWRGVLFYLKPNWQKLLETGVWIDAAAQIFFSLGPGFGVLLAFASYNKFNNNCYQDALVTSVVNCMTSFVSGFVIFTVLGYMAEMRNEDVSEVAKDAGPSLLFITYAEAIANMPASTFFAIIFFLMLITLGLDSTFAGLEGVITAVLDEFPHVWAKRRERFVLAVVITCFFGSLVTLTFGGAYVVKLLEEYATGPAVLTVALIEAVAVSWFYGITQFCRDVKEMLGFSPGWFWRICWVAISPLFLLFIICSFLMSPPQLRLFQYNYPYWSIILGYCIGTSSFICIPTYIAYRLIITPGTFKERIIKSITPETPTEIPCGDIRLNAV
Experimental: as §1

T1 sequence (P28222 whole entry): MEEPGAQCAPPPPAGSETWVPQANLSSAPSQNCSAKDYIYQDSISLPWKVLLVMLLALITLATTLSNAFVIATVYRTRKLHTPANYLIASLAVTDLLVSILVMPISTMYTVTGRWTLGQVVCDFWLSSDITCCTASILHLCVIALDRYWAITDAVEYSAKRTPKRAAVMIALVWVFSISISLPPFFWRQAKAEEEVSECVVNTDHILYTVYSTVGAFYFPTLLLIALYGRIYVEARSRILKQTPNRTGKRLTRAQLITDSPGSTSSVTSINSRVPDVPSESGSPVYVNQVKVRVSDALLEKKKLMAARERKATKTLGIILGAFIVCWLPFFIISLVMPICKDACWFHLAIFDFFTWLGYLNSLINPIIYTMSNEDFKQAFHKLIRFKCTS

SMILES: Cc1ncsc1-c1ccc([C@H](C)NC(=O)[C@@H]2C[C@@H](O)CN2C(=O)[C@@H](NC(=O)CNC(=O)c2ccc(F)c(-c3ccc(N4C[C@@H](C)N(C)[C@@H](C)C4)c(NC(=O)c4c[nH]c(=O)cc4C(F)(F)F)c3)c2)C(C)(C)C)cc1 [MS67]
- inhibition at 1 µM (5-HT1B): 5.37%
- inhibition at 1 µM (5-HT1D): 41.7%
- inhibition at 1 µM (5-HT1E): 0.02%
- inhibition at 1 µM (5-HT2A): 11%
- inhibition at 1 µM (5-HT2B): 9.31%
- inhibition at 1 µM (5-HT2C): 3.09%
- inhibition at 1 µM (5-HT5A): 36.6%
- inhibition at 1 µM (Alpha2A): 21.3%
- inhibition at 1 µM (Alpha2C): 1.35%
- inhibition at 1 µM (Beta1): 16.9%
- inhibition at 1 µM (D2): 25.5%
- inhibition at 1 µM (D4): 5.81%
- inhibition at 1 µM (D5): 22.1%
- inhibition at 1 µM (H1): 15.9%
- inhibition at 1 µM (H2): 19.7%
- inhibition at 1 µM (H3): 21.1%
- inhibition at 1 µM (H4): 21.9%
- inhibition at 1 µM (KOR): 26.3%
- inhibition at 1 µM (M1): 43.6%
- inhibition at 1 µM (M2): 31.1%
- inhibition at 1 µM (M3): 23.9%
- inhibition at 1 µM (M4): 30.9%
- inhibition at 1 µM (M5): 2.36%
- inhibition at 1 µM (MOR): 21.7%
- inhibition at 1 µM (NET): -8.91%
- inhibition at 1 µM (SERT): 8.01%

From publication PMC8500670, “A selective WDR5 degrader inhibits acute myeloid leukemia in patient-derived mouse models” (Science translational medicine, 2021)
